For nine molecules, IC50 results are on record in BindingDB's records for doi:10.1016/j.bmcl.2014.09.005 (Rhône-Poulenc Rorer, 2014).

As usually defined, the IC50 is the concentration that gives 50% inhibition.

This assay can be described thus: Antagonist activity at CRTh2 receptor in human eosinophil assessed as inhibition of PGD2-induced cell shape change.
`CCN(Cc1cc(C(F)(F)F)ccc1-c1cc(CC(=O)O)cc2cnn(C)c12)C(=O)C1CC1`: the IC50 is 58 nM.
To `CCN(Cc1cc(C(F)(F)F)ccc1-c1cc(CC(=O)O)cc2cn(C)nc12)C(=O)C1CC1` belongs 43 nM; to `CCN(Cc1cc(C(F)(F)F)ccc1-c1cn(CC(=O)O)c2ccccc12)C(=O)C1CC1`, 63 nM.
To `CCN(Cc1cc(C(F)(F)F)ccc1-c1cn(CC(=O)O)c2cccnc12)C(=O)C1CC1` belongs 14 nM; to `CCN(Cc1cc(C(F)(F)F)ccc1-c1cn(CC(=O)O)c2ccncc12)C(=O)C1CC1`, 8 nM.
Consider `CCN(Cc1cc(C(F)(F)F)ccc1-n1cc(CC(=O)O)c2cccnc21)C(=O)C1CC1`, for which the IC50 was 20 nM.
Under `CCN(Cc1cc(C(F)(F)F)ccc1-c1cc(CC(=O)O)c2ccncn12)C(=O)C1CC1` stands 19 nM.
Under `CCN(Cc1cc(C(F)(F)F)ccc1-c1nc(CC(=O)O)c2ccccn12)C(=O)C1CC1` stands 94 nM; under `CCN(Cc1cc(C(F)(F)F)ccc1-c1cc(CC(=O)O)ccc1OC)C(=O)C1CC1`, 13 nM.
